Like-named read-outs stand apart in the source and are kept apart here.
Key:
[1] = tested on: T-Rex 293 cell line SC3 cells having increased expression of androgen receptor protein due to exposure to doxycycline; test: Cellular growth inhibition assay, T-Rex 293 SC3 cells with doxycycline (CellTiter-Glo, 72 hours); type: cell-based; conditions: T-Rex 293 SC3 cells with increased androgen receptor expression due to doxycycline (10 ng/mL)
Outline: (§1)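 Doxycycline (10 ng/mL) was either included or omitted to toggle wild-type androgen receptor expression in SC3 cells, a T-Rex 293 clone, grown in stripped-serum, phenol red-free medium. After 72 hours with compound, viable cells were quantified by CellTiter-Glo 2.0.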

VCaP cells = test: Cellular growth inhibition assay for VCaP cells (CellTiter-Glo, 72 hours); type: cell-based, human
Outline: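 Luminescent viability signal after 72 h of compound exposure gave GI50 values by four-parameter nonlinear regression. Compounds were added in 0.5% DMSO to cells plated 24 h earlier at 5000/well in DMEM containing 10% FBS.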

[2] = tested on: T-Rex 293 cell line SC3 cells lacking increased expression of androgen receptor protein; test: Cellular growth inhibition assay, T-Rex 293 SC3 cells without doxycycline (CellTiter-Glo, 72 hours); type: cell-based; conditions: T-Rex 293 cell line SC3 cells not exposed to doxycycline (lacking increased androgen receptor expression)
Outline: as §1

SMILES	GI50 ([1]; 72 h) [nM]	GI50 (VCaP cells; Homo sapiens, VCaP, 72 h) [nM]	GI50 ([2]; 72 h) [nM]	GI50 [1] [nM]	GI50 [2] [nM]	GI50 (VCaP cells) [nM]
CCNC(=O)C[C@@H]1N=C(c2ccc(N3CC(N(C)C4CN(c5ccc(C(=O)N[C@H]6CC[C@H](Oc7ccc(C#N)c(Cl)c7)CC6)nn5)C4)C3)cc2)c2c(sc(C)c2C)-n2c(C)nnc21 [I-61]	< 500	< 500	> 3000	–	–	–
Cc1sc2c(c1C)C(c1ccc(NC3CCCN(c4ncc(C(=O)N[C@H]5CC[C@H](Oc6ccc(C#N)c(Cl)c6)CC5)cn4)CC3)cc1)=NC(Cc1ncco1)c1nnc(C)n1-2 (stereo partly drawn) [I-789]	< 500	< 500	< 500	–	–	–
Cc1sc2c(c1C)C(c1ccc(N3C4CCC3CC3(CCN(c5ccc(C(=O)N[C@H]6CC[C@H](Oc7ccc(C#N)c(Cl)c7)CC6)nn5)C3)C4)cc1)=N[C@@H](C)c1nnc(C)n1-2 (stereo partly drawn) [I-698]	–	< 500	–	< 500	< 500	–
Cc1sc2c(c1C)C(c1ccc(N3CC(C4CCC(Cc5ccc(C(=O)N[C@H]6CC[C@H](Oc7ccc(C#N)c(Cl)c7)CC6)nn5)CC4)C3)cc1)=N[C@@H](Cc1ncco1)c1nnc(C)n1-2 (stereo partly drawn) [I-772]	< 500	< 500	500 to 1500	–	–	–
COCC[C@@H]1N=C(c2ccc(C3CCC4(CC3)CCN(c3ccc(C(=O)N[C@H]5CC[C@H](Oc6ccc(C#N)c(Cl)c6)CC5)nn3)C4)cc2)c2c(sc(C)c2C)-n2c(C)nnc21 (single isomer, unassigned) [I-619]	–	–	–	< 500	> 3000	< 500
Cc1sc2c(c1C)C(c1ccc(OC3CC4(C3)CC3(CCN(c5ccc(C(=O)N[C@H]6CC[C@H](Oc7ccc(C#N)c(Cl)c7)CC6)nn5)CC3)C4)cn1)=N[C@@H](C)c1nnc(C)n1-2 [I-465]	< 500	< 500	> 3000	–	–	–
Cc1sc2c(c1C)C(c1ccc(N[C@H]3CC[C@H](CNc4ncc(C(=O)N[C@H]5CC[C@H](Oc6ccc(C#N)c(Cl)c6)CC5)cn4)CC3)cc1)=NC(Cc1ncco1)c1nnc(C)n1-2 (stereo partly drawn) [I-796]	< 500	< 500	< 500	–	–	–
Cc1sc2c(c1C)C(c1ccc(CC3CC4(CCN(c5ccc(C(=O)N[C@H]6CC[C@H](Oc7ccc(C#N)c(Cl)c7)CC6)nn5)CC4)C3)cc1)=NC(C(F)(F)F)c1nnc(C)n1-2 (stereo partly drawn) [I-728]	–	–	> 3000	> 3000	–	> 3000
Cc1sc2c(c1C)C(c1ccc(CC3CC4(CCCN(c5ccc(C(=O)N[C@H]6CC[C@H](Oc7ccc(C#N)c(Cl)c7)CC6)nn5)C4)C3)cn1)=NC(Cc1ncco1)c1nnc(C)n1-2 (stereo partly drawn) [I-771]	–	–	–	< 500	< 500	< 500
Cc1sc2c(c1C)C(c1ccc(COC3CCC4(C3)CN(c3ccc(C(=O)N[C@H]5CC[C@H](Oc6ccc(C#N)c(Cl)c6)CC5)nn3)CCO4)cc1)=N[C@@H](C)c1nnc(C)n1-2 (stereo partly drawn) [I-559]	–	–	–	< 500	< 500	< 500
CC[C@@H]1N=C(c2ccc(C3CCC4(CCCN(c5ccc(C(=O)N[C@H]6CC[C@H](Oc7ccc(C#N)c(Cl)c7)CC6)nn5)C4)CC3)cc2)c2c(sc(C)c2C)-n2c(C)nnc21 (stereo partly drawn) [I-652]	< 500	< 500	> 3000	–	–	–
Cc1sc2c(c1C)C(c1ccc(OC3CC(CC4CCN(c5ccc(C(=O)N[C@H]6CC[C@H](Oc7ccc(C#N)c(Cl)c7)CC6)nn5)CC4)C3)cc1)=N[C@@H](C)c1nnc(C)n1-2 (stereo partly drawn) [I-543]	< 500	< 500	> 3000	–	–	–
COCC1N=C(c2ccc(C#CC3CC4(C3)CN(c3ccc(C(=O)N[C@H]5CC[C@H](Oc6ccc(C#N)c(Cl)c6)CC5)nn3)C4)cc2)c2c(sc(C)c2C)-n2c(C)nnc21 (stereo partly drawn) [I-571]	–	–	–	< 500	< 500	< 500
Cc1sc2c(c1C)C(c1ccc(N3CCC4CN(c5ccc(C(=O)N[C@H]6CC[C@H](Oc7ccc(C#N)c(Cl)c7)CC6)nn5)CCC4C3)cc1)=NC1(CC1)c1nnc(C)n1-2 (stereo partly drawn) [I-565]	–	–	–	< 500	< 500	> 3000
Cc1sc2c(c1C)C(c1ccc(CC3CCC4(CCCN(c5ccc(C(=O)N[C@H]6CC[C@H](Oc7ccc(C#N)c(Cl)c7)CC6)nn5)C4)C3)nc1)=N[C@@H](C)c1nnc(C)n1-2 (stereo partly drawn) [I-666]	–	–	–	< 500	> 3000	< 500
Cc1sc2c(c1C)C(c1ccc(C#CC3CC4(C3)CN(c3ccc(C(=O)N[C@H]5CC[C@H](Oc6ccc(C#N)c(Cl)c6)CC5)nn3)C4)cc1)=NC(C(F)(F)F)c1nnc(C)n1-2 (stereo partly drawn) [I-741]	–	–	> 3000	< 500	–	< 500
Cc1sc2c(c1C)C(c1ccc(C3CCC4(CCN(c5ccc(C(=O)N[C@H]6CC[C@H](Oc7ccc(C#N)c(Cl)c7)CC6)nn5)CC4)C3)cc1)=N[C@@H](C)c1nnc(C)n1-2 (stereo partly drawn) [I-497]	–	–	–	< 500	> 3000	1500 to 3000
Cc1sc2c(c1C)C(c1ccc(N3C4CCCC3CC3(CCN(c5ccc(C(=O)N[C@H]6CC[C@H](Oc7ccc(C#N)c(Cl)c7)CC6)nn5)C3)C4)cc1)=N[C@@H](C)c1nnc(C)n1-2 (stereo partly drawn) [I-730]	–	< 500	–	< 500	> 3000	–

SMILES	GI50 ([1]; 72 h) [nM]	GI50 (VCaP cells; Homo sapiens, VCaP, 72 h) [nM]	GI50 ([2]; 72 h) [nM]	GI50 [1] [nM]	GI50 [2] [nM]	GI50 (VCaP cells) [nM]
C#Cc1ccc(O[C@H]2CC[C@H](NC(=O)c3ccc(N4CCC(C5CN(c6ccc(C7=NC8(CC8)c8nnc(C)n8-c8sc(C)c(C)c87)cc6)C5)CC4)nn3)CC2)cc1Cl [I-450]	< 500	< 500	> 3000	–	–	–
CC[C@@H]1N=C(c2ccc(C3CCC4(CCCN(c5ccc(C(=O)N[C@H]6CC[C@H](Oc7ccc(C#N)c(Cl)c7)CC6)nn5)C4)CC3)cc2)c2c(sc(C)c2C)-n2c(C)nnc21 (stereo partly drawn) [I-653]	–	–	–	< 500	> 3000	< 500
Cc1sc2c(c1C)C(c1ccc(OC3CC4(C3)CC3(CCN(c5ccc(C(=O)N[C@H]6CC[C@H](Oc7ccc(C#N)c(Cl)c7)CC6)nn5)CC3)C4)cc1)=NC1(CC1)c1nnc(C)n1-2 [I-452]	< 500	< 500	> 3000	–	–	–
Cc1sc2c(c1C)C(c1ccc(N3CCC(CC4CCN(c5ccc(C(=O)N[C@H]6CC[C@H](Oc7ccc(C#N)c(Cl)c7)CC6)nn5)CC4)CC3)cc1)=NC1(CC1)c1nnc(C)n1-2 [I-492]	< 500	< 500	> 3000	–	–	–
Cc1sc2c(c1C)C(c1ccc(OC3CC4(CCN(c5ccc(C(=O)N[C@H]6CC[C@H](Oc7ccc(C#N)c(Cl)c7)CC6)nn5)CC4)C3)nc1)=N[C@@H](C)c1nnc(C)n1-2 [I-462]	–	–	–	< 500	> 3000	< 500
COCC[C@@H]1N=C(c2ccc(C3CCC4(CCCN(c5ccc(C(=O)N[C@H]6CC[C@H](Oc7ccc(C#N)c(Cl)c7)CC6)nn5)C4)CC3)cc2)c2c(sc(C)c2C)-n2c(C)nnc21 (stereo partly drawn) [I-657]	–	–	–	< 500	> 3000	500 to 1500
Cc1sc2c(c1C)C(c1ccc(C3CCC4(CCN(c5ccc(C(=O)N[C@H]6CC[C@H](Oc7ccc(C#N)c(Cl)c7)CC6)nn5)CC4)C3)cc1)=NC(C(F)(F)F)c1nnc(C)n1-2 (stereo partly drawn) [I-761]	–	–	–	> 3000	> 3000	< 500
Cc1sc2c(c1C)C(c1ccc(CC3CCC4(CCCN(c5ccc(C(=O)N[C@H]6CC[C@H](Oc7ccc(C#N)c(Cl)c7)CC6)nn5)C4)C3)nc1)=N[C@@H](C)c1nnc(C)n1-2 (stereo partly drawn) [I-665]	< 500	< 500	> 3000	–	–	–
Cc1sc2c(c1C)C(c1ccc(N3CCC4(CC3)CC(Cc3ccc(C(=O)N[C@H]5CC[C@H](Oc6ccc(C#N)c(Cl)c6)CC5)nn3)C4)cc1)=N[C@@H](C)c1nnc(C)n1-2 [I-605]	< 500	< 500	> 3000	–	–	–
Cc1sc2c(c1C)C(c1ccc(COC3CCC4(CCCN(c5ccc(C(=O)N[C@H]6CC[C@H](Oc7ccc(C#N)c(Cl)c7)CC6)nn5)C4)C3)cc1)=N[C@@H](C)c1nnc(C)n1-2 (stereo partly drawn) [I-624]	–	–	–	< 500	500 to 1500	500 to 1500
Cc1sc2c(c1C)C(c1ccc(OC3CC4(C3)CC3(CCN(c5ccc(C(=O)N[C@H]6CC[C@H](Oc7ccc(C#N)c(Cl)c7)CC6)nn5)CC3)C4)nc1)=NCc1nnc(C)n1-2 [I-479]	< 500	< 500	> 3000	–	–	–
Cc1sc2c(c1C)C(c1ccc(N3CCC4(CC3)CCN(c3ccc(C(=O)N[C@H]5CC[C@H](Oc6ccc(C#N)c(Cl)c6)CC5)nn3)CC4)cc1)=NC1(CC1)c1nnc(C)n1-2 [I-490]	< 500	> 3000	> 3000	–	–	–
Cc1sc2c(c1C)C(c1ccc(COC3CCC4(CCCN(c5ccc(C(=O)N[C@H]6CC[C@H](Oc7ccc(C#N)c(Cl)c7)CC6)nn5)C4)C3)cc1)=N[C@@H](C)c1nnc(C)n1-2 (stereo partly drawn) [I-513]	–	–	< 500	< 500	–	500 to 1500
CC1=NN=C2C1c1sc(C)c(C)c1C(c1ccc(N3C[C@@H]4CN(c5ccc(C(=O)N[C@H]6CC[C@H](Oc7ccc(C#N)c(Cl)c7)CC6)nn5)C[C@@H]4C3)cc1)=NC21CC1 (stereo partly drawn) [I-505]	< 500	< 500	> 3000	–	–	–
Cc1sc2c(c1C)C(c1ccc(N3C4CC(=O)CC3CN(c3ncc(C(=O)N[C@H]5CC[C@H](Oc6ccc(C#N)c(Cl)c6)CC5)cn3)C4)cc1)=NC(Cc1ncco1)c1nnc(C)n1-2 (stereo partly drawn) [I-802]	–	< 500	–	< 500	500 to 1500	–
Cc1sc2c(c1C)C(c1ccc(C3CCC4(CCN(c5ccc(C(=O)N[C@H]6CC[C@H](Oc7ccc(C#N)c(Cl)c7)CC6)nn5)CC4)C3)cc1)=NC1(CC1)c1nnc(C)n1-2 (stereo partly drawn) [I-519]	< 500	< 500	> 3000	–	–	–
COCC[C@@H]1N=C(c2ccc(OC3CC4(CCCN(c5ccc(C(=O)N[C@H]6CC[C@H](Oc7ccc(C#N)c(Cl)c7)CC6)nn5)C4)C3)cc2)c2c(sc(C)c2C)-n2c(C)nnc21 (stereo partly drawn) [I-663]	–	–	–	< 500	< 500	< 500

Source: patent publication US20260109707A1, “HETEROBIFUNCTIONAL COMPOUNDS AND METHODS OF TREATING DISEASE” (Halda Therapeutics OpCo. Inc., priority 2022, published 2026)
